Data taken from patent US8481586B2, “Pyrrolo[2,3-a] carbazoles and use thereof as PIM kinase inhibitors” (Centre National de la Recherche Scientifique, priority 2008, dated 2013).
Like-named read-outs stand apart in the source and are kept apart here.

Experiments:
Format in all cases: biochemical
[1] = tested on: AMPK; experiment: kinase panel residual activity test; conditions: compound at 10 μM
Excerpt: (§1) MKK1, ERK 1, ERK 2, JNK1, JNK2, JNK3, p38a MAPK, p38b MAPK, p38g MAPK, p38s MAPK, ERK8, RSK1, RSK2, PDK1, PKBa, PKBb, SGK1, S6K1, PKA, ROCK2, PRK2, PKCa, PKC zeta, PKD1, MSK1, MNK1, MNK2, MAPKAP-K2, MAPKAP-K3, PRAK, CAMKKa, CAMKKb, CAMK1, SmMLCK, PHK, CHK1, CHK2, GSK3b, CDK2/cyclin A, PLK1, PLK1 (Okadaic acid), Aurora B, Aurora C, AMPK, MARK3, BRSK2, MELK, CK1, CK2, NEK2a, NEK6, NEK7, IKKb, PIM-1, PIM-2, PIM-3, SRPK1, MST2, EF2K, HIPK2, HIPK3, PAK-4, PAK5, PAK6, Src, Lck, CSK.

[2] = target: Aurora C (Homo sapiens (Human), UniProt Q9UQB9); experiment: kinase panel residual activity test; conditions: compound at 10 μM
Excerpt: as §1

[3] = target: CAMKKb (Homo sapiens (Human), UniProt Q96RR4); experiment: kinase panel residual activity test; conditions: compound at 10 μM
Excerpt: as §1

[4] = target: CDK2/cyclin A (Homo sapiens (Human), UniProt P24941); experiment: kinase panel residual activity test; conditions: compound at 10 μM
Excerpt: as §1

[5] = target: CHK1 (Homo sapiens (Human), UniProt O14757); experiment: kinase panel residual activity test; conditions: compound at 10 μM
Sequence of CHK1 (O14757 whole entry, species assumed): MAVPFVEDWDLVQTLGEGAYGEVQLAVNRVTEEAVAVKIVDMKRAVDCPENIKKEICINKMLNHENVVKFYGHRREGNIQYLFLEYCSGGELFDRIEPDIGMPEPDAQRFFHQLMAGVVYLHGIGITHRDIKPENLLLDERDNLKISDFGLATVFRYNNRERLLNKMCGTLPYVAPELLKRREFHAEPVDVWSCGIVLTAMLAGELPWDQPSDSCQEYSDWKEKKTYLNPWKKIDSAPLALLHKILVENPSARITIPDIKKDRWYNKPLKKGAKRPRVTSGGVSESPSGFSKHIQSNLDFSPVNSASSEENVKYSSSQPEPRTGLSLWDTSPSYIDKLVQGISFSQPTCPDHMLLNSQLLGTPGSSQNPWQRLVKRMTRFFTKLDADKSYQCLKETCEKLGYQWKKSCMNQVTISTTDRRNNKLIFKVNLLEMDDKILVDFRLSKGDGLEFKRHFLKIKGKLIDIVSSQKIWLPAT
Excerpt: as §1

[6] = target: HIPK2 (Homo sapiens (Human), UniProt Q9H2X6); experiment: kinase panel residual activity test; conditions: compound at 10 μM
Sequence of HIPK2 (Q9H2X6 whole entry, species assumed): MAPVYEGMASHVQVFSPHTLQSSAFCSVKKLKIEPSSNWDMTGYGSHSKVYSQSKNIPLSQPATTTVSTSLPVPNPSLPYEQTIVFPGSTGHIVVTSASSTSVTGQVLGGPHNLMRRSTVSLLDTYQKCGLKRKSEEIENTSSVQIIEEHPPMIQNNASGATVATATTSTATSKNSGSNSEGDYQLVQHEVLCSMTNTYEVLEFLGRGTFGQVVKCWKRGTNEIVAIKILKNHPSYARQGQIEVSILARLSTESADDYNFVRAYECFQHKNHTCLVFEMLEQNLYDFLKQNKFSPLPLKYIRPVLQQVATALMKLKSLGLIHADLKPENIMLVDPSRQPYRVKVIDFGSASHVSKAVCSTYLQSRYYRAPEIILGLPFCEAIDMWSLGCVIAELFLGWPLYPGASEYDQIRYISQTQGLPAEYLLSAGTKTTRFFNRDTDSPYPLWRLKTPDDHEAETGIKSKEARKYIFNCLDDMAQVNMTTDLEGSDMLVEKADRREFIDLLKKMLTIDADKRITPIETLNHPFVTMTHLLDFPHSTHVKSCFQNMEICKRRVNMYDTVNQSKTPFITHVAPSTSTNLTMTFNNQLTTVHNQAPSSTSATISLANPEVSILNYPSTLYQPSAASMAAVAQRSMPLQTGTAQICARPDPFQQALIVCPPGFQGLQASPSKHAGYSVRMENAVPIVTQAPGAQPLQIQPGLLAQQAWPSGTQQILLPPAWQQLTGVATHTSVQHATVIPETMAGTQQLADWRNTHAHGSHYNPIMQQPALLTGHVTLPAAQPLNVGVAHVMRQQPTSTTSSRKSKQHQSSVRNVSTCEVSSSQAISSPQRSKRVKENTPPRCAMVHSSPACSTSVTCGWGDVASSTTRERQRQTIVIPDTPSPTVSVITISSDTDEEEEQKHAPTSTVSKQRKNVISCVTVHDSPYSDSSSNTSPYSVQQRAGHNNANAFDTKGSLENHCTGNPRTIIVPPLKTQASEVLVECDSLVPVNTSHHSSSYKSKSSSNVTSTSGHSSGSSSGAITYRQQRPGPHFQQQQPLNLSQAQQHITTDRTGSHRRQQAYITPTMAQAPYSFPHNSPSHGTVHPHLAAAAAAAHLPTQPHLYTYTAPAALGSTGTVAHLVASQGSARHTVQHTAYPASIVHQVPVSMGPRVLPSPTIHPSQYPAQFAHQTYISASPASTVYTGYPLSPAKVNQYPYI
Excerpt: as §1

[7] = target: JNK1 (Homo sapiens (Human), UniProt P45983); experiment: kinase panel residual activity test; conditions: compound at 10 μM
Sequence of JNK1 (P45983 whole entry, species assumed): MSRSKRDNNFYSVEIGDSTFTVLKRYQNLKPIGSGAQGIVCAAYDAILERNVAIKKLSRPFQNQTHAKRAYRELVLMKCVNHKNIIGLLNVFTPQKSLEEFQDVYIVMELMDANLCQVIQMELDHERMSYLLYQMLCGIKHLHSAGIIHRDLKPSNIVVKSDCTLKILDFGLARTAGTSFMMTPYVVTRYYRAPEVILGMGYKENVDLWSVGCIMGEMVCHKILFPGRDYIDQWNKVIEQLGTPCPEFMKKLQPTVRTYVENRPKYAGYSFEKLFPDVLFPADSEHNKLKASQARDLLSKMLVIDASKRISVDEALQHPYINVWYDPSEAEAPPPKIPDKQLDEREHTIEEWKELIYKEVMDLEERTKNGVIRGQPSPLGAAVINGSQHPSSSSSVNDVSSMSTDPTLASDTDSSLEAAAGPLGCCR
Excerpt: as §1

[8] = target: MARK3 (Homo sapiens (Human), UniProt P27448); experiment: kinase panel residual activity test; conditions: compound at 10 μM
Sequence of MARK3 (P27448 whole entry, species assumed): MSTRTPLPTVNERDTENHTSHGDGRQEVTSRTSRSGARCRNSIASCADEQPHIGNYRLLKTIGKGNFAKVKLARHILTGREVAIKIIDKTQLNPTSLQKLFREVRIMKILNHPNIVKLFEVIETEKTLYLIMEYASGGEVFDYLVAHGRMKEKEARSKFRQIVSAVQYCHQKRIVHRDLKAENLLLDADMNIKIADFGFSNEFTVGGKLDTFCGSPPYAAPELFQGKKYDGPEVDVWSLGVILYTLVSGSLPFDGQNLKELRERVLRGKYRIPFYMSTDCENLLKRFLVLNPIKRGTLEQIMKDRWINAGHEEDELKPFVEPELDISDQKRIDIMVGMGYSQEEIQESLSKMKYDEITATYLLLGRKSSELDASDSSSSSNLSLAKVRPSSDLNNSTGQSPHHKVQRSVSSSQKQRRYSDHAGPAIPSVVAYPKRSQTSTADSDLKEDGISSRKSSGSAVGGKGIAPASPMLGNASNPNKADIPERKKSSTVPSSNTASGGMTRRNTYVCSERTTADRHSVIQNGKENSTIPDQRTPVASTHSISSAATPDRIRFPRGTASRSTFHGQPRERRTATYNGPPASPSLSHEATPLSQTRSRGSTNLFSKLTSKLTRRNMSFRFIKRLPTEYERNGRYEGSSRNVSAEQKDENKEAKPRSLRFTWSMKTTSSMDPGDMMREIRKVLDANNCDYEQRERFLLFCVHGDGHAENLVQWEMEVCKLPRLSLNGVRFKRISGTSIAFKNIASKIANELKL
Excerpt: as §1

[9] = target: MSK1 (Homo sapiens (Human), UniProt O75582); experiment: kinase panel residual activity test; conditions: compound at 10 μM
Excerpt: as §1

[10] = target: MST2 (Homo sapiens (Human), UniProt Q13188); experiment: kinase panel residual activity test; conditions: compound at 10 μM
Sequence of MST2 (Q13188 whole entry, species assumed): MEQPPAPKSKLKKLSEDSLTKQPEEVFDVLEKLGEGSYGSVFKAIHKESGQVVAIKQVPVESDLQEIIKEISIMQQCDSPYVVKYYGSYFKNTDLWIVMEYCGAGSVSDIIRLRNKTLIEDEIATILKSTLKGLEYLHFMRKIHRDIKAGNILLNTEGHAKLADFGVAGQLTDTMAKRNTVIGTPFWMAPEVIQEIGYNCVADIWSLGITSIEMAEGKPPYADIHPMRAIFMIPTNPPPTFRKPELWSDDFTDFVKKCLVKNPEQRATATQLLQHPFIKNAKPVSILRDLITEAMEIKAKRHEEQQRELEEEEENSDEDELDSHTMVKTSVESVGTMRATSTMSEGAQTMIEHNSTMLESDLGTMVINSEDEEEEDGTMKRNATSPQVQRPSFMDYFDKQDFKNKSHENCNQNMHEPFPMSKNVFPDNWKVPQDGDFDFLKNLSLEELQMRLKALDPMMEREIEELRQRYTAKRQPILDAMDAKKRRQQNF
Excerpt: as §1

[11] = target: NEK2a (Homo sapiens (Human), UniProt P51955); experiment: kinase panel residual activity test; conditions: compound at 10 μM
Excerpt: as §1

[12] = target: NEK7 (Homo sapiens (Human), UniProt Q8TDX7); experiment: kinase panel residual activity test; conditions: compound at 10 μM
Excerpt: as §1

[13] = target: PAK6 (Homo sapiens (Human), UniProt Q9NQU5); experiment: kinase panel residual activity test; conditions: compound at 10 μM
Excerpt: as §1

[14] = tested on: PHK; experiment: kinase panel residual activity test; conditions: compound at 10 μM
Excerpt: as §1

[15] = target: PKBb (Homo sapiens (Human), UniProt P31751); experiment: kinase panel residual activity test; conditions: compound at 10 μM
Excerpt: as §1

[16] = target: PKCa (Homo sapiens (Human), UniProt P17252); experiment: kinase panel residual activity test; conditions: compound at 10 μM
Excerpt: as §1

[17] = target: PLK1 (Homo sapiens (Human), UniProt P53350); experiment: kinase panel residual activity test; conditions: compound at 10 μM
Sequence of PLK1 (P53350 whole entry, species assumed): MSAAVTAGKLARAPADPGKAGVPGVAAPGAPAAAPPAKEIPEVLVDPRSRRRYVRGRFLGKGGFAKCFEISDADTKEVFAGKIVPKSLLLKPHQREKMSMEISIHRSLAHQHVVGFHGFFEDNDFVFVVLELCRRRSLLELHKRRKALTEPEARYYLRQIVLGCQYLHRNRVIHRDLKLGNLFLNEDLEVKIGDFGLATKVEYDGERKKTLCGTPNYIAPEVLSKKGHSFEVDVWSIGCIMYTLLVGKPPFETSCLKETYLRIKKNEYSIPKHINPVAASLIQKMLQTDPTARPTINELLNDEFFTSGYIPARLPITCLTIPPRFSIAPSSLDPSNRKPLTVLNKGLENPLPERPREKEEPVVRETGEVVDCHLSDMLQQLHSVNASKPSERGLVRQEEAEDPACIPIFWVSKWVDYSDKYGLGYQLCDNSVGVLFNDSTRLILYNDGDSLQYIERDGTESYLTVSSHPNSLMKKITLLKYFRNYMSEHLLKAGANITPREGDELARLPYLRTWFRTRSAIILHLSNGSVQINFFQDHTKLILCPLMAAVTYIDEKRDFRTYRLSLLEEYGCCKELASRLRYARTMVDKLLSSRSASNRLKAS
Excerpt: as §1

[18] = target: SGK1 (Homo sapiens (Human), UniProt O00141); experiment: kinase panel residual activity test; conditions: compound at 10 μM
Sequence of SGK1 (O00141 whole entry, species assumed): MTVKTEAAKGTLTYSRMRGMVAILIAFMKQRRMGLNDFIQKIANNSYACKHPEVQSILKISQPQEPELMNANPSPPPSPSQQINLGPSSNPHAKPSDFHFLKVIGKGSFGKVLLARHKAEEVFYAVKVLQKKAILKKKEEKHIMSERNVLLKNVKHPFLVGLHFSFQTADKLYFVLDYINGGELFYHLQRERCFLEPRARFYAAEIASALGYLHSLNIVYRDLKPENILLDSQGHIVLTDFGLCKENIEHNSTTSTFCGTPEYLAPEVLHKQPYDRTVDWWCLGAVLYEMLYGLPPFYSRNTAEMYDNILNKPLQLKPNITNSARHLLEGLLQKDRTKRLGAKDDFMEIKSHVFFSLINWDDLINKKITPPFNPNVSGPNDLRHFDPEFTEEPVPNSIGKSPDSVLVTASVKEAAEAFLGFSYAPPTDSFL
Excerpt: as §1

[19] = target: SRPK1 (Homo sapiens (Human), UniProt Q96SB4); experiment: kinase panel residual activity test; conditions: compound at 10 μM
Excerpt: as §1

[20] = target: p38s MAPK (Homo sapiens (Human), UniProt O15264); experiment: kinase panel residual activity test; conditions: compound at 10 μM
Excerpt: as §1

[21] = tested on: CK1; experiment: kinase panel residual activity test; conditions: compound at 10 μM
Excerpt: as §1

[22] = tested on: CK2; experiment: kinase panel residual activity test; conditions: compound at 10 μM
Excerpt: as §1

[23] = target: ERK2 (Homo sapiens (Human), UniProt P28482); experiment: kinase panel residual activity test; conditions: compound at 10 μM
Excerpt: as §1

[24] = target: Lck (Homo sapiens (Human), UniProt P06239); experiment: kinase panel residual activity test; conditions: compound at 10 μM
Excerpt: as §1

[25] = target: MKK1 (Homo sapiens (Human), UniProt Q02750); experiment: kinase panel residual activity test; conditions: compound at 10 μM
Excerpt: as §1

[26] = target: ROCK2 (Homo sapiens (Human), UniProt O75116); experiment: kinase panel residual activity test; conditions: compound at 10 μM
Excerpt: as §1

[27] = target: RSK1 (Homo sapiens (Human), UniProt Q15418); experiment: kinase panel residual activity test; conditions: compound at 10 μM
Excerpt: as §1

[28] = target: PIM-1 (Homo sapiens (Human), UniProt P11309); experiment: inhibition test on kinase PIM-1 (residual activity, IC50)
Sequence of PIM-1 (P11309 whole entry, species assumed): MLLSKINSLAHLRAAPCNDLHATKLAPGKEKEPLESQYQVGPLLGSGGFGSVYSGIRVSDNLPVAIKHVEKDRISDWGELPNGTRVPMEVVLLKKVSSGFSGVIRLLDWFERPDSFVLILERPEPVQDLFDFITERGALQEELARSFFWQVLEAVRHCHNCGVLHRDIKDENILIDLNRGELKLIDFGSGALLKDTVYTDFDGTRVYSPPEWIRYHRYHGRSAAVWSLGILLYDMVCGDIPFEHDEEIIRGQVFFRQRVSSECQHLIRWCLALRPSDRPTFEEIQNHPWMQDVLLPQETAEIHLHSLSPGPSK
Excerpt: as §1
(§2) The results in terms of residual activity of the kinases after being placed in contact with the compounds of Examples 2, 3 and 5, at a concentration of 10 μM (10 μmol/L), are shown in Table 1 below.
(§3) The higher the residual activity of the kinase tested, the lower the inhibitory activity of the test compounds on the tested kinase.
(§4) The compounds according to the invention were then tested on the kinases PIM-1, PIM-2 and PIM-3.
(§5) The results in terms of percentage of residual activity after placing the compounds according to the invention in contact with each of the kinases PIM-1, PIM-2 and PIM-3 are given in Table 2 below.
(§6) The higher the residual activity, the lower the inhibitory activity of the test compounds.
(§7) The mean inhibitory concentrations (IC50) of certain preferred compounds of the invention were determined in the following manner: the IC50 values were measured after performing the inhibition tests on the kinases PIM-1, PIM-2 and PIM-3 at ten different concentrations for each test compound, and the IC50 value was determined from the dose-inhibition curves obtained.

[29] = target: PIM-2 (Homo sapiens (Human), UniProt Q9P1W9); experiment: inhibition test on kinase PIM-2 (residual activity, IC50)
Excerpt: as §1, §2, §3, §4, §5, §6, §7

[30] = target: PIM-3 (Homo sapiens (Human), UniProt Q86V86); experiment: inhibition test on kinase PIM-3 (residual activity, IC50)
Excerpt: as §1, §2, §3, §4, §5, §6, §7

[31] = compound at 10 μM, Table 1 panel, read-out: % residual activity PIM-1
[32] = product at 10 μmol/L, Table 2, N.I. = not inhibitory, read-out: Percentage of residual activity PIM-1
[33] = ten concentrations, dose-inhibition curve
[34] = compound at 10 μM, Table 1 panel, read-out: % residual activity PIM-2
[35] = product at 10 μmol/L, Table 2, N.I. = not inhibitory, read-out: Percentage of residual activity PIM-2
[36] = compound at 10 μM, Table 1 panel, read-out: % residual activity PIM-3
[37] = product at 10 μmol/L, Table 2, N.I. = not inhibitory, read-out: Percentage of residual activity PIM-3

Compound | % residual activity AMPK [1] [%] | remaining activity at 10 µM [2] [%] | remaining activity at 10 µM [3] [%] | remaining activity at 10 µM [4] [%] | remaining activity at 10 µM [5] [%] | remaining activity at 10 µM [6] [%] | remaining activity at 10 µM [7] [%] | remaining activity at 10 µM [8] [%] | remaining activity at 10 µM [9] [%] | remaining activity at 10 µM [10] [%] | remaining activity at 10 µM [11] [%] | remaining activity at 10 µM [12] [%] | remaining activity at 10 µM [13] [%] | % residual activity PHK [14] [%] | remaining activity at 10 µM [15] [%] | remaining activity at 10 µM [16] [%] | remaining activity at 10 µM [17] [%] | remaining activity at 10 µM [18] [%] | remaining activity at 10 µM [19] [%] | remaining activity at 10 µM [20] [%] | further results
O=Cc1c[nH]c2c1ccc1c3ccccc3[nH]c12 [Example 3, 1,10-dihydropyrrolo[2,3-a]carbazole-3-carbaldehyde] | 59 | 79 | 56 | 74 | 97 | 25 | 102 | 88 | 71 | 63 | 88 | 89 | 94 | 33 | 98 | 84 | 91 | 64 | 84 | 92 | 
NC(=O)c1c[nH]c2c1ccc1c3ccccc3[nH]c12 [Example 5, 1,10-dihydropyrrolo[2,3-a]carbazole-3-carboxamide] | 85 | 61 | 79 | 53 | 113 | 42 | 106 | 73 | 91 | 76 | 106 | 89 | 83 | 43 | 103 | 80 | 100 | 71 | 93 | 76 | % residual activity CK1 [21]: 96%; % residual activity CK2 [22]: 77%; remaining activity at 10 µM [23]: 93%; remaining activity at 10 µM [24]: 78%; remaining activity at 10 µM [25]: 80%; remaining activity at 10 µM [26]: 48%; remaining activity at 10 µM [27]: 79%; remaining activity at 10 µM [28, 31]: 9%; remaining activity at 10 µM [28, 32]: 9%; IC50 [28, 33]: 780 nM; remaining activity at 10 µM [29, 34]: 27%; remaining activity at 10 µM [29, 35]: 27%; remaining activity at 10 µM [30, 36]: 9%; remaining activity at 10 µM [30, 37]: 9%; IC50 [30, 33]: 210 nM
c1ccc2c(c1)[nH]c1c2ccc2cc[nH]c21 [Example 2, 1,10-dihydropyrrolo[2,3-a]carbazole] | 80 | 85 | 93 | 97 | 123 | 59 | 102 | 116 | 90 | 82 | 104 | 96 | 92 | 90 | 107 | 111 | 111 | 82 | 90 | 78 | % residual activity CK1 [21]: 107%; % residual activity CK2 [22]: 91%; remaining activity at 10 µM [23]: 94%; remaining activity at 10 µM [24]: 88%; remaining activity at 10 µM [25]: 87%; remaining activity at 10 µM [26]: 86%; remaining activity at 10 µM [27]: 105%; remaining activity at 10 µM [28, 31]: 20%; remaining activity at 10 µM [28, 32]: 20%; remaining activity at 10 µM [29, 34]: 62%; remaining activity at 10 µM [29, 35]: 62%; remaining activity at 10 µM [30, 36]: 10%; remaining activity at 10 µM [30, 37]: 10%
